Data from patent US11396502B2, “Substituted heterocyclic derivatives as PI3K inhibitors” (Incyte Corporation, priority 2018, dated 2022).
Structures can show the parent of a compound that is named as a salt. Where two headings read alike, the source gives them in different places.

Experiments:
[1] = test system: Phosphorylated Ribosomal Protein S6 (RPS6) in THP-1 cells; assay: THP-1 RPS6 ELISA assay; assay type: cell-based, Human; settings: 2 hours compound, 10 nM MCP-1 for 15 minutes, Phospho-RPS6 ELISA, read-out: PI3Kγ_THP1_RPS6_ELISA IC50
Method in brief: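 Serum-starved THP-1 cells (2×10^5/well, RPMI) preincubated with compound 2 h at 37° C, then stimulated with 10 nM MCP-1 for 15 min. Lysates assayed by phospho-RPS6 ELISA, absorbance 450 nm (540 nm correction); IC50 from percent inhibition versus log concentration.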

PI3Kγ (p110γ) = PI3Kγ (p110γ) (Homo sapiens (Human), UniProt P48736); assay: PI3K-γ scintillation proximity assay; assay type: biochemical; settings: recombinant human PI3Kγ 13 nM, 20 μM PIP2, 2 μM ATP, 120 min, room temperature
PI3Kγ (p110γ), sequence (P48736 whole entry): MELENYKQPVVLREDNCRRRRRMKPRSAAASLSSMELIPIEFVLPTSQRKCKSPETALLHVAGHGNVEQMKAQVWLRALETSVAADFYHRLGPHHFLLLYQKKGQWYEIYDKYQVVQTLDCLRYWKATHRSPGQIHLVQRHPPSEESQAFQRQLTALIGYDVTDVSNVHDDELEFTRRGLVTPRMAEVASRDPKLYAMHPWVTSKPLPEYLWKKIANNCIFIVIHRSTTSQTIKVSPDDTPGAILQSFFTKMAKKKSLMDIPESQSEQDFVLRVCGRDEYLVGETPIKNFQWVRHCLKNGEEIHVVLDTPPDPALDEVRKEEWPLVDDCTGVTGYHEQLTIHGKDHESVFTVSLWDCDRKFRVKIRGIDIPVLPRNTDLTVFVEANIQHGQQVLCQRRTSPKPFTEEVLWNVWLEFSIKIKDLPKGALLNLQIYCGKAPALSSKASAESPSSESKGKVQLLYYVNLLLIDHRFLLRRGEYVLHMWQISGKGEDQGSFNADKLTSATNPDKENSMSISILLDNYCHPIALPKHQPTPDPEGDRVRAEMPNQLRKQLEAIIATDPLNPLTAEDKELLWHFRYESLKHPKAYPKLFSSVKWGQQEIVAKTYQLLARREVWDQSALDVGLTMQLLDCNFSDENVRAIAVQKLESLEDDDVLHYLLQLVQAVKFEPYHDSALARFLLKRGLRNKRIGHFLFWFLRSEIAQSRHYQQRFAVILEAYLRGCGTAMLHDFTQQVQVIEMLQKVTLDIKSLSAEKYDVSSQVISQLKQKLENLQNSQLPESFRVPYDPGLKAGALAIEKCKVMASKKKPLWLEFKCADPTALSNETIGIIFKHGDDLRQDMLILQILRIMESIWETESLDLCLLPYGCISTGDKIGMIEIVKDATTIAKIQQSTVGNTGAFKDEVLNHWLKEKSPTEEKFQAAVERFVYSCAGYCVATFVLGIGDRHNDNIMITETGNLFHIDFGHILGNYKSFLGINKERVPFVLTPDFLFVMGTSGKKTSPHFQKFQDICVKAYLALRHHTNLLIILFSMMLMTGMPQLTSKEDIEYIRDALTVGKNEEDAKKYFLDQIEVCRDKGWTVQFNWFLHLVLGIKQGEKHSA
Method in brief: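 Recombinant human p110γ (13 nM) with 20 μM PIP2, 2 μM ATP plus [γ-33P]ATP in 20 mM MOPS pH 6.7, 10 mM MgCl2, 5 mM DTT, 0.03% CHAPS, 2% DMSO. Reaction ran 120 min at room temperature, then was quenched with EDTA and read with WGA SPA beads. IC50 came from percent-of-solvent-control curves.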

PI3Kδ (p110δ/p85α) = PI3Kδ (p110δ/p85α) (Homo sapiens (Human), UniProt O00329); assay: PI3Kδ scintillation proximity assay; assay type: biochemical; settings: recombinant human PI3Kδ 3.4 nM, 20 μM PIP2, 2 μM ATP, 120 min, room temperature
PI3Kδ (p110δ/p85α), sequence (O00329 whole entry): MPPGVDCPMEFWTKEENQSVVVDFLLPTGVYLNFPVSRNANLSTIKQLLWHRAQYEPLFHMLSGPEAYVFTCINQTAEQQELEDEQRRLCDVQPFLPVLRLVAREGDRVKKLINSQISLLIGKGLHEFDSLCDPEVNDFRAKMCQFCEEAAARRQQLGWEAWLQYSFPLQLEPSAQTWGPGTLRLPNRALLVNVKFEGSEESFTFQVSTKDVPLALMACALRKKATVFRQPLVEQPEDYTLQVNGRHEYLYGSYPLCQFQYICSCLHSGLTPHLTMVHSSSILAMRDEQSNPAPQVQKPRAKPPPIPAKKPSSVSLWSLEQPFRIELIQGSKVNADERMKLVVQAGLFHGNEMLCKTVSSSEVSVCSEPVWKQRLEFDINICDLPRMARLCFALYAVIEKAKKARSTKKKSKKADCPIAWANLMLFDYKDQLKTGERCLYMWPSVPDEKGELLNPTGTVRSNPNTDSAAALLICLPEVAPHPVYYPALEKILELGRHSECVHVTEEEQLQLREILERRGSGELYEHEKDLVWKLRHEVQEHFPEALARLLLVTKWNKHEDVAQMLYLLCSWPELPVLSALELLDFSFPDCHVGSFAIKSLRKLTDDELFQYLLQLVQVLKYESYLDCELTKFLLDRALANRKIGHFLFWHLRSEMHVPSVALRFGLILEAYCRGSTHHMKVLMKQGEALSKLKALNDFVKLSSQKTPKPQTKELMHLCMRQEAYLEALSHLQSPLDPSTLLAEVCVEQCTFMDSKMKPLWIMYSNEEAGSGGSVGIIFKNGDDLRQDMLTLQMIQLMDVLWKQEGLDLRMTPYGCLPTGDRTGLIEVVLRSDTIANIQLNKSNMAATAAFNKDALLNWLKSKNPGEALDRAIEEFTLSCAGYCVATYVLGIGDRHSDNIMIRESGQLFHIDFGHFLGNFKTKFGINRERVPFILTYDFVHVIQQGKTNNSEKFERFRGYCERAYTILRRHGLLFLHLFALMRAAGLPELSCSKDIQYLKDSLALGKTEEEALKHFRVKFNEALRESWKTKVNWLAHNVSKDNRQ
PI3Kδ (p110δ/p85α), sequence (P27986 whole entry partner): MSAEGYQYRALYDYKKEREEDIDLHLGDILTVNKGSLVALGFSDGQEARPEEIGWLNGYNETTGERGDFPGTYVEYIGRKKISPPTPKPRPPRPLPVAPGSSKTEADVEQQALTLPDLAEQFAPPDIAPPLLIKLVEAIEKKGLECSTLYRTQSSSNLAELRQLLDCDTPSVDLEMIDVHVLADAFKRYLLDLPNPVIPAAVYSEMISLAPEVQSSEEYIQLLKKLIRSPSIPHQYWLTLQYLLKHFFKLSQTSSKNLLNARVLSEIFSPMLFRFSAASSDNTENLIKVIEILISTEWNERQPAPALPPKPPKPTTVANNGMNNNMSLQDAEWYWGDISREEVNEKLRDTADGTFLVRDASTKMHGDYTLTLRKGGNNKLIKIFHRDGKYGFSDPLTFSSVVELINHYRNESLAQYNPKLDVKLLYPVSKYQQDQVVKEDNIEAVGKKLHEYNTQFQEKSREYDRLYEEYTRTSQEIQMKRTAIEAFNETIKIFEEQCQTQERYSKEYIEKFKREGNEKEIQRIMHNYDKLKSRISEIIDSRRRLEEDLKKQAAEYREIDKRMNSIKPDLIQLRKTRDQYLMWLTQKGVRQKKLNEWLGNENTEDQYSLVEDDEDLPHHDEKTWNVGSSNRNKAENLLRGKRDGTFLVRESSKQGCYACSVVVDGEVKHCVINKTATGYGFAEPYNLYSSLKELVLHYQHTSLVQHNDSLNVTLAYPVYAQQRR
Method in brief: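 Recombinant p110δ/p85α (3.4 nM) with 20 μM PIP2, 2 μM ATP plus [γ-33P]ATP in MOPS pH 6.7, MgCl2, DTT, CHAPS, 2% DMSO; 120 min, room temperature. EDTA-quenched product captured on WGA SPA beads, scintillation counted. IC50 from percent solvent-control activity versus log inhibitor concentration.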

[2] = Homo sapiens, THP-1, serum starved THP-1 cells

IC50 [1, 2] [nM]	IC50 (PI3Kγ (p110γ)) [nM]	IC50 (PI3Kδ (p110δ/p85α)) [nM]	IC50 ([1]; serum starved THP-1 cells, Trifluoroacetate Salt) [nM]	SMILES
> 1000	< 100	> 2000		C[C@@H](C1CC1)N1Cc2cc(-c3ccnc(-c4ccn[nH]4)c3)cc(S(C)(=O)=O)c2C1=O [Example 15, (S)-5-(2-(1H-Pyrazol-5-yl)pyridin-4-yl)-2-(1-cyclopropylethyl)-7-(methylsulfonyl)isoindolin-1-one, trifluoroacetate salt]
< 100	< 100	500 to 2000		Cc1cnc(-c2cc(-c3cc4c(c(S(C)(=O)=O)c3)C(=O)N([C@@H](C)C3CC3)C4)ccn2)[nH]1 [Example 16, (S)-2-(1-Cyclopropylethyl)-5-(2-(5-methyl-1H-imidazol-2-yl)pyridin-4-yl)-7-(methylsulfonyl)isoindolin-1-one, Trifluoroacetate Salt]
500 to 1000	< 100	> 2000		C[C@@H](C1CC1)N1Cc2cc(-c3ccnc(-c4ncc[nH]4)c3)cc(S(C)(=O)=O)c2C1=O [Example 17, (S)-5-(2-(1H-Imidazol-2-yl)pyridin-4-yl)-2-(1-cyclopropylethyl)-7-(methylsulfonyl)isoindolin-1-one, trifluoroacetate salt]
100 to 500	< 100	> 2000		Cc1nc(-c2cc(-c3cc4c(c(C(O)CO)c3)C(=O)N([C@@H](C)C3CC3)C4)ccn2)[nH]c1C (stereo partly drawn) [Example 18, 2-((S)-1-Cyclopropylethyl)-7-(1,2-dihydroxyethyl)-5-(2-(4,5-dimethyl-1H-imidazol-2-yl)pyridin-4-yl)isoindolin-1-one]
	< 100	> 2000	100 to 500	Cc1nc(-c2cc(-c3cc4c(c(S(C)(=N)=O)c3)C(=O)N([C@@H](C)C3CC3)C4)ccn2)[nH]c1C (stereo partly drawn) [Example 20, 2-((S)-1-Cyclopropylethyl)-5-(2-(4,5-dimethyl-1H-imidazol-2-yl)pyridin-4-yl)-7-(S-methylsulfonimidoyl)isoindolin-1-one, Trifluoroacetate Salt]
100 to 500	< 100	500 to 2000		CN=S(C)(=O)c1cc(-c2ccnc(-c3nc(C)c(C)[nH]3)c2)cc2c1C(=O)N([C@@H](C)C1CC1)C2 (stereo partly drawn) [Example 23, 2-((S)-1-Cyclopropylethyl)-5-(2-(4,5-dimethyl-1H-imidazol-2-yl)pyridin-4-yl)-7-(N,S-dimethylsulfonimidoyl)isoindolin-1-one]
